Reference: publication PMC6806071 (2019)
Values belong to the compound of their own block, whether it stands above or below them.

Legend:
[1] = tested on: 56-mer VTD3 aptamer (DNA, aptamer) AGCAGCACAGAGGTCATGGGGGGTGTGACTTTGGTGTGCCTATGCGTGCTACGGAA; experiment: curcumin fluorescence displacement; conditions: 0.1 mM NaCl; 5% ethanol; aptamer 100 nM, curcumin 0.6 µM displaced; up to 1 µM
[2] = tested on: 56-mer VTD3 aptamer (DNA, aptamer) AGCAGCACAGAGGTCATGGGGGGTGTGACTTTGGTGTGCCTATGCGTGCTACGGAA; experiment: CD; curcumin fluorescence displacement; conditions: 0.1 mM NaCl; CD: aptamer 0.8 µM, VTD3 20 µM; curcumin displaced
[3] = tested on: Random ssDNA (70-mer) (DNA, single strand) AGGCCTAAGGGCATAATTAGCTCGAGCTCGAAAGGGGTTATATGATGATTTGAATTCATGGGGCCCGACT; experiment: curcumin fluorescence displacement; conditions: 0.1 mM NaCl, 5% ethanol, curcumin 0.6 µM, no sensor response
[4] = tested on: 75-mer BPA aptamer (DNA, aptamer) ATACGAGCTTGTTCAATAGGAAATCACGATTAGGTCCTCCGTCTGTGTGCGGTTGTGGTGATAGTAAGAGCAATC; experiment: curcumin fluorescence displacement; conditions: 0.1 mM NaCl; 5% ethanol; aptamer 100 nM, curcumin 0.6 µM displaced
[5] = tested on: 56-mer VTD3 aptamer (DNA, aptamer) AGCAGCACAGAGGTCATGGGGGGTGTGACTTTGGTGTGCCTATGCGTGCTACGGAA; experiment: fluorescence enhancement; CD; conditions: 0.1 M NaCl; 5% ethanol; SYBR Green I 5 µM
[6] = tested on: 56-mer VTD3 aptamer (DNA, aptamer) AGCAGCACAGAGGTCATGGGGGGTGTGACTTTGGTGTGCCTATGCGTGCTACGGAA; experiment: fluorescence titration, Langmuir fit; conditions: 0.1 mM NaCl (methods: 0.1 M NaCl); 5% ethanol, 5 and 25 °C; curcumin 0.6 µM; b27 prints 0.7 µM, b25 0.7 nM
[7] = tested on: 75-mer BPA aptamer (DNA, aptamer) ATACGAGCTTGTTCAATAGGAAATCACGATTAGGTCCTCCGTCTGTGTGCGGTTGTGGTGATAGTAAGAGCAATC; experiment: fluorescence enhancement; conditions: 0.1 mM NaCl; aptamer 100 nM, curcumin 0.6 µM

binding [1]: no
SMILES: C=C1CC[C@H](O)C/C1=C/C=C1\CCC[C@]2(C)[C@@H]([C@H](C)/C=C/[C@H](C)C(C)C)CC[C@@H]12

binding [2]: yes
binding ([3]; VTD3 up to 1 µM): no
SMILES: C=C1CC[C@H](O)C/C1=C/C=C1\CCC[C@]2(C)[C@@H]([C@H](C)CCCC(C)C)CC[C@@H]12

binding [1]: no
SMILES: CC(=O)[C@H]1CC[C@H]2[C@@H]3CCC4=CC(=O)CC[C@]4(C)[C@H]3CC[C@]12C

binding [3]: no
binding [4]: yes
SMILES: CC(C)(c1ccc(O)cc1)c1ccc(O)cc1

binding [5]: yes
SMILES: CCCN(CCCN(C)C)c1cc(C=C2Sc3ccccc3N2C)c2ccccc2[n+]1-c1ccccc1

KD [6]: 700 pM
binding [7]: yes
SMILES: COc1cc(/C=C/C(=O)CC(=O)/C=C/c2ccc(O)c(OC)c2)ccc1O

binding [1]: no
SMILES: C[C@]12C=CC(=O)C=C1CC[C@@H]1[C@@H]2C(=O)C[C@@]2(C)[C@H]1CC[C@]2(O)C(=O)CO

binding [1]: no
SMILES: C[C@]12CC[C@@H]3c4ccc(O)cc4CC[C@H]3[C@@H]1CC[C@@H]2O
